Data taken from patent US7858635B2 (priority 2005, dated 2010).

What was measured:
M1 muscarinic receptor = molecular target: T1, M1 muscarinic receptor (Homo sapiens, UniProt P11229); experiment: Functional mobilization of intracellular calcium (FLIPR, Fluo-3), M1-CHO cells; type: cell-based; conditions: compound nos. 1-454; for Emax: read-out: M1 Efficacy; for M1 Activity: M1-CHO cells, calcium mobilization
T1 construct: expressed in transfected cells; host or cells: CHO cells (M1-CHO, under zeocin and G418 selection)
T1 sequence (P11229 1-460): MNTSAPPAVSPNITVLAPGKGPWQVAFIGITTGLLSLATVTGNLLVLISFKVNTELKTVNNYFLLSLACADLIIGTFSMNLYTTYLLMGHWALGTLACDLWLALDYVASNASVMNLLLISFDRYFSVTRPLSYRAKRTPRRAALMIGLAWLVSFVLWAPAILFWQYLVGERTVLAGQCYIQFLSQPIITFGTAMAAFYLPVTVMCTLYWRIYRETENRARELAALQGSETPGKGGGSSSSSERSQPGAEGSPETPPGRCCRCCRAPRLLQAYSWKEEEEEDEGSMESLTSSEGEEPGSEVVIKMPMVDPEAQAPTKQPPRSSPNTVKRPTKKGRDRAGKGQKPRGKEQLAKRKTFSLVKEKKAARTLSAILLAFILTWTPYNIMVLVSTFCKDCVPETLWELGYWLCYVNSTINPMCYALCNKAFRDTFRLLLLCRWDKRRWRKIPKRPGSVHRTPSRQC
Method: (§1) CHO cells expressing muscarinic receptors (M1 to M5) are grown as monolayers in tissue culture flasks at 37° C. in a humidified atmosphere containing 5% CO2 and passaged every 3-5 days. The growth media is Dulbecco's modified eagles medium (DMEM, Gibco Cat#12430-054), containing 25 mM Hepes and supplemented with Fetal Bovine Serum (Hyclone, cat# SH30071.03), 0.1 mM of MEM non-essential amino acids (GIBCO, Cat# 11140-050), 1 mM MEM Sodium Pyruvate (GIBCO Cat# 11360-070) and 100 units/ml of Penicillin G and 100 μg/ml of Streptomycin (GIBCO Cat# 15140-122). The recombinant muscarinic receptor cell lines are grown under antibiotic pressure with media containing 25 μm/ml zeocin and 500 μg/ml G418 (M1-CHO), 4 μg/ml puromycin, 50 μg/ml zeocin and 2.5 μm/ml blasticidin (M2 and M4-CHO) or 50 μg/ml zeocin and 4 μg/ml puromycin (M3 and M5-CHO).
(§2) Cells are harvested at 80-90% confluence using Versene (GIBCO Cat# 15040-066), collected by centrifugation and seeded 18-24 hrs prior to running the calcium assay at a density of 5,000-10,000 cells/well in […], clear-bottomed 384-well plates (BD Biocoat, poly-D-lysine, Cat#356663). The day of the experiment, the cells are washed with a plate washer (Bioteck Instruments, ELX 405) using bath1 buffer (140-mM NaCl, 4.5-mM KCL, 2-mM CaCl2, 1-mM MgCl2, 10-mM Hepes-Na, 10-mM Glucose, pH 7.4, with NaOH) containing 1 mM Probenecid. Next, the calcium dye Fluo-3 (25 μl/well of Fluo-3 μM at 4 μM, Molecular Probes F-1241, in Bath 1 buffer containing 1 mM Probenecid) is added to the 25 μl of Bath 1 remaining in each well after the plate wash and the dye is loaded at 37° C. in the tissue culture incubator for 60-90 min. The fluorescent dye is removed using the plate washer with Bath 1 containing 1 mM Probenecid, leaving 25 μl/well of this solution after the wash. Alternatively, cells can be loaded with the calcium indicator from Molecular Devices (Calcium 3 Assay Reagents, Cat # R7181) adding 5 μl of a 5× solution dye in Bath 1 containing 1 mM Probenecid (10 ml per dye flask cat# R7182 to generate a solution 20×) to 20 μl of the same buffer. After loading for 60 min, the experiment can be run without having to remove the dye.
(§3) Compounds are prepared at a 2× fold concentration in a 96-well plate (round bottom, Costar Corning cat# 3656), by reconstituting the pre-spotted compounds in bath 1 containing 1 mM probenecid. The final concentration DMSO is 0.5%, and the amount of DMSO is normalized across the assay plate. To determine an agonist action of the compounds on muscarinic receptors, the reconstituted compounds are added (25 μl compound/well) to the cell assay plate (containing 25 μl/well) using the multi-channel robotic system of the FLIPR 3 Instrument (Molecular Devices, Sunnyvale, Calif.). To determine a functional inhibitory action of the compounds on muscarinic receptors, the reconstituted compounds are added (25 μl compound/well) to the assay plate and pre-incubated for 15 min prior to adding 25 μl of Carbachol at 3× the EC80 for each muscarinic subtype. Alternatively, the compounds can be co-applied simultaneously with the agonist. In both assay modes, the fluorescence is recorded for 60 sec (excitation wavelength is […] and emission wavelength 540 nm) using the FLIPR 3 instrument.
(§4) The potency, efficacy and selectivity of the muscarinic compounds were evaluated by screening the compound activity across the whole family (M1 to M5 cells). Compounds were also screened for activity on other proteins such as other GPCRs and ion channels to determine selectivity on M4 receptors.

M4 muscarinic receptor = molecular target: T2, M4 muscarinic receptor (Homo sapiens, UniProt P08173); experiment: Functional mobilization of intracellular calcium (FLIPR, Fluo-3), M4-CHO cells; type: cell-based; conditions: compound nos. 1-454; for Emax: read-out: M4 Efficacy; for M4 Activity: M4-CHO cells, calcium mobilization
T2 construct: expressed in transfected cells; host or cells: CHO cells (M4-CHO, under puromycin, zeocin and blasticidin selection)
T2 sequence (P08173 1-479): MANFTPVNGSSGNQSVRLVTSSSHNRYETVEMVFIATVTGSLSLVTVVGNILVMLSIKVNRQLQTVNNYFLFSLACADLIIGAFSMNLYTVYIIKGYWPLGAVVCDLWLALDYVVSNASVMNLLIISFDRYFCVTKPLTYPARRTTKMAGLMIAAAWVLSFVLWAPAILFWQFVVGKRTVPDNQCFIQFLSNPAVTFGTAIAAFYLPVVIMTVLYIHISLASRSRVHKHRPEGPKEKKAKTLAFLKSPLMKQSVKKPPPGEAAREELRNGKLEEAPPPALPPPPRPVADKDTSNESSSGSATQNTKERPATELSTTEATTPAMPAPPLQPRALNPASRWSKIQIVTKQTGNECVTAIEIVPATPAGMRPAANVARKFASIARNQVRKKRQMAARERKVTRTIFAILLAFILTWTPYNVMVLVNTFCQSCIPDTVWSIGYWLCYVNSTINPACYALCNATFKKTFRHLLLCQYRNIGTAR
Method: as §1, §2, §3, §4

[1] = 100% efficacy is the maximum response obtained with the Carbachol control

Row | SMILES | Emax (M1 muscarinic receptor; [1]) [%] | M1 Activity (M1 muscarinic receptor) | Emax (M4 muscarinic receptor; [1]) [%] | M4 Activity (M4 muscarinic receptor) | M1 Efficacy (M1 muscarinic receptor; [1]) | M4 Efficacy (M4 muscarinic receptor; [1])
1 | COCCOC(=O)N1C2CCC1CC(N1CCC3(CC1)CN(C(=O)OC)c1ccc(F)cc13)C2 (stereo not drawn) [compound 33] | > 85 | +++ (activity was measured to be less than or equal to 0.7 μM) | > 70 | +++ (activity was measured to be less than or equal to 0.1 μM) | – | –
2 | CC(=O)N1CC2(CCN(C3CC4CCC(C4)C3)CC2)c2cc(F)ccc21 (stereo not drawn) [compound 35] | > 85 | +++ (activity was measured to be less than or equal to 0.7 μM) | > 70 | ++ (activity was measured to be between 0.1 μM and 4.0 μM) | – | –
3 | CCCOC(=O)N1CCC(CN2CCC3(CC2)C[C@H](NC(C)=O)c2ccccc23)CC1 [compound 36] | 65 to 85 | +++ (activity was measured to be less than or equal to 0.7 μM) | > 70 | ++ (activity was measured to be between 0.1 μM and 4.0 μM) | – | –
4 | Clc1ccc2c(c1)C1(CCN(C3CCOCC3)CC1)CN2 [compound 37] | 65 to 85 | +++ (activity was measured to be less than or equal to 0.7 μM) | > 70 | ++ (activity was measured to be between 0.1 μM and 4.0 μM) | – | –
5 | CCOC(=O)N1CCC(N2CCC3(CC2)CN(C(=O)OCCOC)c2ccc(F)cc23)CC1 [compound 38] | > 85 | +++ (activity was measured to be less than or equal to 0.7 μM) | > 70 | +++ (activity was measured to be less than or equal to 0.1 μM) | – | –
6 | CCOC(=O)N1CCC(N2CCC3(CC2)CN(C(=O)N(C)C)c2ccc(F)cc23)CC1 [compound 39] | 65 to 85 | +++ (activity was measured to be less than or equal to 0.7 μM) | > 70 | ++ (activity was measured to be between 0.1 μM and 4.0 μM) | – | –
7 | CCOC(=O)N1C2CCC1CC(N1CCC3(CC1)CN(S(=O)(=O)c1ccc(F)cc1)c1ccc(F)cc13)C2 (stereo not drawn) [compound 40] | 65 to 85 | +++ (activity was measured to be less than or equal to 0.7 μM) | > 70 | ++ (activity was measured to be between 0.1 μM and 4.0 μM) | – | –
8 | CCOC(=O)N1CCC(N2CCC3(CC2)CN(C(=O)c2ccc(OC)cc2)c2ccc(F)cc23)CC1 [compound 41] | > 85 | +++ (activity was measured to be less than or equal to 0.7 μM) | > 70 | +++ (activity was measured to be less than or equal to 0.1 μM) | – | –
9 | CCOC(=O)N1C2CCC1CC(N1CCC3(CC1)COc1ccc(F)cc13)C2 (stereo not drawn) [compound 42] | > 85 | +++ (activity was measured to be less than or equal to 0.7 μM) | > 70 | ++ (activity was measured to be between 0.1 μM and 4.0 μM) | – | –
10 | O=C(O[C@@H]1CCOC1)N1C2CCC1CC(N1CCC3(CCc4ccccc43)CC1)C2 (stereo partly drawn) [compound 43] | > 85 | +++ (activity was measured to be less than or equal to 0.7 μM) | > 70 | + (activity was measured to be greater than or equal to 4.0 μM) | – | –
11 | COC(=O)N1C2CCC1CC(N1CCC3(CC1)CN(C(=O)c1cc(C)n(C)n1)c1ccc(F)cc13)C2 (stereo not drawn) [compound 44] | 65 to 85 | +++ (activity was measured to be less than or equal to 0.7 μM) | > 70 | ++ (activity was measured to be between 0.1 μM and 4.0 μM) | – | –
12 | CCOC(=O)N1CCC(N2CCC3(CC2)CN(C(=O)c2cccc(OC)c2)c2ccc(F)cc23)CC1 [compound 45] | > 85 | +++ (activity was measured to be less than or equal to 0.7 μM) | 55 to 70 | +++ (activity was measured to be less than or equal to 0.1 μM) | – | –
13 | CCOC(=O)N1CCC(CN2CCC3(CC2)CN(C(C)=O)c2ccc(C)cc23)CC1 [compound 46] | > 85 | +++ (activity was measured to be less than or equal to 0.7 μM) | 55 to 70 | +++ (activity was measured to be less than or equal to 0.1 μM) | – | –
14 | CC(=O)N1CC2(CCN(C3CC4CCC(C3)N4C(=O)O[C@H]3CCOC3)CC2)c2cc(F)ccc21 (stereo partly drawn) [compound 47] | 65 to 85 | +++ (activity was measured to be less than or equal to 0.7 μM) | 55 to 70 | ++ (activity was measured to be between 0.1 μM and 4.0 μM) | – | –
15 | CN(C)C(=O)N1CC2(CCN(C3CCN(C(=O)OCCF)CC3)CC2)c2cc(F)ccc21 [compound 48] | > 85 | +++ (activity was measured to be less than or equal to 0.7 μM) | 55 to 70 | ++ (activity was measured to be between 0.1 μM and 4.0 μM) | – | –
16 | CCOC(=O)N1CCC(N2CCC3(CC2)CN(C(=O)O[C@H]2CCOC2)c2ccc(F)cc23)CC1 [compound 49] | – | +++ (activity was measured to be less than or equal to 0.7 μM) | – | +++ (activity was measured to be less than or equal to 0.1 μM) | +++ (efficacy was calculated to be 85% or more) | ++ (efficacy was calculated to be between 70% and 55%)
17 | CCOC(=O)N1C2CCC1CC(N1CCC3(CC1)CN(C(=O)c1cc(C)n(C)n1)c1ccc(F)cc13)C2 (stereo not drawn) [compound 50] | > 85 | +++ (activity was measured to be less than or equal to 0.7 μM) | > 70 | ++ (activity was measured to be between 0.1 μM and 4.0 μM) | – | –
18 | Cc1ccc2c(c1)C1(CCN(C3CC4CCC3C4)CC1)CN2C(=O)C1CC1 (stereo not drawn) [compound 51] | 65 to 85 | +++ (activity was measured to be less than or equal to 0.7 μM) | 55 to 70 | ++ (activity was measured to be between 0.1 μM and 4.0 μM) | – | –
